SMILES strings stand for the structures.

In one test the target is T1, human full-length HSP90 (Homo sapiens, UniProt P08238).
T1 construct: E. coli expressed human full-length HSP90 protein, purified >95%; made in house; host or cells: E. coli
T1 sequence (P08238 whole entry): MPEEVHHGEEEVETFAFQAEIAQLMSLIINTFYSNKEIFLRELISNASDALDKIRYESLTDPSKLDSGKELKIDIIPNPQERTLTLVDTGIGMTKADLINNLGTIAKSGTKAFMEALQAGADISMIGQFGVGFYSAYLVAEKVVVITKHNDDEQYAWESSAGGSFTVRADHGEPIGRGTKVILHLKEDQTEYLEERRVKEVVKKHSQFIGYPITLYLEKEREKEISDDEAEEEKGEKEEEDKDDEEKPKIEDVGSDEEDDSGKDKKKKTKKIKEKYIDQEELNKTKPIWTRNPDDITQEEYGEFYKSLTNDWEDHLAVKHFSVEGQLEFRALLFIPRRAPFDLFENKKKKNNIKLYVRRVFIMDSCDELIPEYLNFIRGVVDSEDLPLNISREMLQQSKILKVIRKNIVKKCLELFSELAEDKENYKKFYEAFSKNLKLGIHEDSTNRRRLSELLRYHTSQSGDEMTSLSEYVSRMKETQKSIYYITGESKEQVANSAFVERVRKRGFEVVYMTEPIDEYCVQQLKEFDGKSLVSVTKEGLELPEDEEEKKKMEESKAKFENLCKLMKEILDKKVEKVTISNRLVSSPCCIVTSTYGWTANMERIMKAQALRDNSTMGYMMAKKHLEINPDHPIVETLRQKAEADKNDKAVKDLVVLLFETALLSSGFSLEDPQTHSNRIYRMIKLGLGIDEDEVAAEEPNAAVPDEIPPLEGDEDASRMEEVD
The test is described as follows: Fluorescence polarization (FP) binding assay. To be noted: competitive displacement of fluorescein-labelled probe from human full-length HSP90; activity range; read-out: ACTIVITY* (Activity in the FP binding assay). The source says: Fluorescence Polarization Assay
Fluorescence polarization {also known as fluorescence anisotropy} measures the rotation of a fluorescing species in solution, where the larger molecule the more polarized the fluorescence emission. When the fluorophore is excited with polarized light, the emitted light is also polarized. The molecular size is proportional to the polarization of the fluorescence emission.
The fluoroscein-labelled probe—
binds to HSP90 {full-length human, full-length yeast or N-terminal domain HSP90} and the anisotropy {rotation of the probe:protein complex} is measured.
Test compound is added to the assay plate, left to equilibrate and the anisotropy measured again. Any change in anisotropy is due to competitive binding of compound to HSP90, thereby releasing probe.
Stored at room temperature. • 3) BSA (bovine serum albumen) 10 mg/ml (New England Biolabs # B9001S) • 4) 20 mM probe in 100% DMSO stock concentration. Stored in the dark at RT. Working concentration is 200 nM diluted in AR water and stored at 4° C.
• 1) Add 100 μl×buffer to wells 1A and 12A(=FP BLNK) • 2) Prepare assay mix—all reagents are kept on ice with a lid on the bucket as the probe is light-sensitive.
• 3) Aliquot 100 μl assay mix to all other wells • 4) Seal plate and leave in dark at room temp for 20 minutes to equilibrate
This gives 2.5 mM {50×} stock cpd−assuming cpds 20 mM. • 4) Repeat for wells A2 to A10. Control in columns 11 and 12. • 5) Transfer 5 μl from row A to row B—not column 12. Mix well. • 6) Transfer 5 μl from row B to row C. […] Add 2 μl of 100 mM standard cpd to wells B12-H12 {is positive control} • 13) The Z′ factor is calculated from zero controls and positive wells.
A general note: Polarisation of emitted light reports the rotation of a fluorescent probe.
For `N#Cc1c[nH]c2nc(OCCN3CCC(F)(F)CC3)nc(-c3cc(OCc4ccccc4)c(Cl)cc3Cl)c12` [Example 52], the IC50 is 500 to 10000 nM. On the same count and under the same terms, under `CCN(CC)CCOc1nc(-c2ccc(OC)c(OC)c2)c2c(C#N)c[nH]c2n1` [Example 53] stands 500 to 10000 nM; under `CSc1nc(-c2cc(OCc3ccccc3)c(Cl)cc2Cl)c2c(C#N)c[nH]c2n1` [Example 54], 500 to 10000 nM.

With `COc1cc(-c2nc(SC)nc3[nH]cc(C#N)c23)ccc1C#N` [Example 55], the IC50 lay within 500 to 10000 nM. The same measure, in the same setting: under `CCN(CC)CCOc1nc(-c2cc(OC)c(OC)cc2Cl)c2c(C#N)c[nH]c2n1` [Example 56] stands under 500 nM; under `COc1cc(Cl)c(-c2nc(OCCCN3CCCC3=O)nc3[nH]cc(C#N)c23)cc1OC` [Example 57], under 500 nM; under `COc1cc(Cl)c(-c2nc(OCCN3CC[C@H](F)C3)nc3[nH]cc(C#N)c23)cc1OC` [Example 58], under 500 nM. Still for that read-out and setting: under `CCN(CC)CCCOc1nc(-c2cc(OC)c(OC)cc2Cl)c2c(C#N)c[nH]c2n1` [Example 59] stands under 500 nM; under `COc1cc(Cl)c(-c2nc(OCCCN3CCOCC3)nc3[nH]cc(C#N)c23)cc1OC` [Example 60], under 500 nM. The same measure, in the same setting: then `COc1cc(Cl)c(-c2nc(OCCN3CCOCC3)nc3[nH]cc(C#N)c23)cc1OC` [Example 61], with under 500 nM; and `COc1cc(-c2nc(OCCN3CCCC(F)(F)C3)nc3[nH]cc(C#N)c23)c(Cl)cc1C#N` [Example 62], with under 500 nM; and `COc1cc(-c2nc(OCCN3CCCC(F)C3)nc3[nH]cc(C#N)c23)c(Cl)cc1C#N` (stereo not drawn) [Example 63], with under 500 nM. Take `COc1cc(Cl)c(-c2nc(SC)nc3[nH]cc(C#N)c23)cc1OCCN1CCC(F)(F)CC1` [Example 64]: the IC50 is under 500 nM. `COc1cc(Cl)c(-c2nc(OCCN3CC[C@@H](F)C3)nc3[nH]cc(C#N)c23)cc1OC` [Example 65]: the IC50 was under 500 nM. Still for that read-out and setting: under `COc1cc(Cl)c(-c2nc(SC)nc3[nH]cc(C#N)c23)cc1OCCN1CCCC(F)(F)C1` [Example 66] stands under 500 nM; under `CCc1nc(-c2cc(OCCN(CC)CC)c(OC)cc2Cl)c2c(C#N)c[nH]c2n1` [Example 67], under 500 nM. Take `CCN(CC)CCOc1cc(-c2nc(SC(C)C)nc3[nH]cc(C#N)c23)c(Cl)cc1OC` [Example 68]: the IC50 is under 500 nM. Take `CCN(CC)CCNc1nc(-c2cc(OC)c(OC)cc2Cl)c2c(C#N)c[nH]c2n1` [Example 69]: the IC50 fell in the range of 500 to 10000 nM. Same read-out and setting: under `COc1cc(Cl)c(-c2nc(C(C)C)nc3[nH]cc(C#N)c23)cc1OC` [Example 70] stands 500 to 10000 nM; under `COc1cc(Cl)c(-c2nc(OCCN3CCC(F)CC3)nc3[nH]cc(C#N)c23)cc1OC` [Example 71], under 500 nM. On the same count and under the same terms, under `COc1cc(Cl)c(-c2nc(SC)nc3[nH]cc(C#N)c23)cc1OCCN1CC[C@H](F)C1` [Example 73] stands under 500 nM; under `COc1cc(Cl)c(-c2nc(SC)nc3[nH]cc(C#N)c23)cc1OCCN1CCC(F)(F)C1` [Example 74], under 500 nM. On the same count and under the same terms, under `COc1cc(Cl)c(-c2nc(SC(C)C)nc3[nH]cc(C#N)c23)cc1OCCN1CCC(F)(F)C1` [Example 75] stands under 500 nM. In the case of `COc1cc(Cl)c(-c2nc(SC(C)C)nc3[nH]cc(C#N)c23)cc1OCCN1CCC(F)(F)CC1` [Example 76], the IC50 was under 500 nM. For the compound `CSc1nc(-c2cc3c(cc2Cl)OCO3)c2c(C#N)c[nH]c2n1` [Example 77], the IC50 was under 500 nM. Same read-out and setting: then `COc1cc(Cl)c(-c2nc(SC(C)(C)C)nc3[nH]cc(C#N)c23)cc1OCCN1CC[C@@H](F)C1` [Example 78], with under 500 nM. On to `CCN(CC)CCOc1cc(-c2nc(OC(C)C)nc3[nH]cc(C#N)c23)c(Cl)cc1OC` [Example 79], for which the IC50 is under 500 nM. On the same count and under the same terms, then `CCN(CC)CCOc1cc(-c2nc(OC3CCCC3)nc3[nH]cc(C#N)c23)c(Cl)cc1OC` [Example 80], with under 500 nM; and `CCN(CC)CCOc1cc(-c2nc(SC3CCCC3)nc3[nH]cc(C#N)c23)c(Cl)cc1OC` [Example 81], with under 500 nM. The same measure, in the same setting: then `CCN(CC)CCOc1cc(-c2nc(CC(C)C)nc3[nH]cc(C#N)c23)c(Cl)cc1OC` [Example 82], with 500 to 10000 nM; and `COc1cc(Cl)c(-c2nc(SC(C)CN3CCC(F)(F)C3)nc3[nH]cc(C#N)c23)cc1OC` (stereo not drawn) [Example 83], with under 500 nM; and `COc1cc(Cl)c(-c2nc(Sc3ccccc3)nc3[nH]cc(C#N)c23)cc1OC` [Example 84], with under 500 nM. The same measure, in the same setting: under `COc1cc(Cl)c(-c2nc(Sc3nccs3)nc3[nH]cc(C#N)c23)cc1OC` [Example 85] stands under 500 nM. With `COc1cc(Cl)c(-c2nc(Oc3ccccc3)nc3[nH]cc(C#N)c23)cc1OC` [Example 86], the IC50 was under 500 nM. The same measure, in the same setting: then `COc1cc(Cl)c(-c2nc(Cc3ccccc3)nc3[nH]cc(C#N)c23)cc1OC` [Example 87], with under 500 nM. With `CCOC(=O)C(C)Sc1nc(-c2cc(OCCN3CCC(F)(F)C3)c(OC)cc2Cl)c2c(C#N)c[nH]c2n1` (stereo not drawn) [Example 88], the IC50 is under 500 nM. Regarding `COc1cc(Cl)c(-c2nc(SC(C)C(=O)O)nc3[nH]cc(C#N)c23)cc1OCCN1CCC(F)(F)C1` (stereo not drawn) [Example 89], the IC50 is under 500 nM. For `COc1cc(Cl)c(-c2nc(SC(C)(C)CN3CCC(F)(F)C3)nc3[nH]cc(C#N)c23)cc1OC` [Example 90], the IC50 is under 500 nM.

As for `COc1cc(Cl)c(-c2nc(Sc3nccn3C)nc3[nH]cc(C#N)c23)cc1OC` [Example 91], the IC50 was in the range of 500 to 10000 nM.

For the compound `CCN(CC)CCOc1cc(-c2nc(Sc3nccs3)nc3[nH]cc(C#N)c23)c(Cl)cc1OC` [Example 92], the IC50 was under 500 nM.

The same test, now with this note: competitive displacement of fluorescein-labelled probe from human full-length HSP90; activity range; read-out: activity in the fluorescence polarization assay.
As to `CSc1nc(-c2ccc(F)cc2C)c2c(C(N)=O)c[nH]c2n1` [Example 40, 4-(4-Fluoro-2-methyl-phenyl)-2-methylsulfanyl-7H-pyrrolo[2,3-d]pyrimidine-5-carboxylic Acid Amide], the IC50 was over 10000 nM. As for `CSc1nc(-c2ccc(Cl)cc2Cl)c2c(C#N)c[nH]c2n1` [Example 41, 4-(Dichloro-phenyl)-2-methylsulfanyl-7H-pyrrolo[2,3-d]pyrimidine-5-carbonitrile], the IC50 was under 500 nM.

For `COc1cc(-c2nc(SC)nc3[nH]cc(C#N)c23)c(Cl)cc1C#N` [Example 42, 4-(2-Chloro-4-cyano-5-methoxy)-2-methylsulfanyl-7H-pyrrolo[2,3-d]pyrimidine-5-carbonitrile], the IC50 was under 500 nM. Still for that read-out and setting: then `CSc1nc(-c2ccc3c(c2)OCCO3)c2c(C#N)c[nH]c2n1` [Example 43, 4-(2,3-Dihydro-benzo[1,4]dioxin-6-yl)-2-methylsulfanyl-7H-pyrrolo[2,3-d]pyrimidine-5-carbonitrile], with over 10000 nM.

`COc1ccc(-c2nc(SC)nc3[nH]cc(C#N)c23)cc1OC` [Example 44, 4-(Dimethoxy-phenyl)-2-methylsulfanyl-7H-pyrrolo[2,3-d]pyrimidine-5-carbonitrile]: the IC50 is under 500 nM.

For the compound `CCN(CC)CCOc1cc(-c2nc(SC(C)C)nc3[nH]cc(C#N)c23)c(Cl)cc1OC` [Example 45, 4-[2-Chloro-5-(2-diethylamino-ethoxy)-4-methoxy-phenyl]-2-isopropylsulfanyl-7H-pyrrolo[2,3-d]pyrimidine-5-carbonitrile], the IC50 was under 500 nM. Still for that read-out and setting: under `CCN(CC)CC[S+]([O-])c1nc(-c2cc(OC)c(OC)cc2Cl)c2c(C#N)c[nH]c2n1` (stereo not drawn) [Example 46, 4-(2-Chloro-4,5-dimethoxy-phenyl)-2-(2-diethylamino-ethanesulfinyl)-7H-pyrrolo[2,3-d]pyrimidine-5-carbonitrile] stands 500 to 10000 nM. The same measure, in the same setting: then `COc1cc(Cl)c(-c2nc([S+](C)[O-])nc3[nH]cc(C#N)c23)cc1OC` (stereo not drawn) [Example 47], with 500 to 10000 nM; and `COc1cc(Cl)c(-c2nc(S(C)(=O)=O)nc3[nH]cc(C#N)c23)cc1OC` [Example 48, 4-(2-Chloro-4,5-dimethoxy-phenyl)-2-methanesulfonyl-7H-pyrrolo[2,3-d]pyrimidine-5-carbonitrile], with 500 to 10000 nM. On the same count and under the same terms, then `CCOC(=O)CSc1nc(-c2cc(OCCN3CCC(F)(F)C3)c(OC)cc2Cl)c2c(C#N)c[nH]c2n1` [Example 49, (4-{2-Chloro-5-[2-(3,3-difluoro-pyrrolidin-1-yl)-ethoxy]-4-methoxy-phenyl}-5-cyano-7H-pyrrolo[2,3-d]pyrimidin-2-ylsulfanyl)-acetic Acid Ethyl Ester], with under 500 nM; and `COc1cc(Cl)c(-c2nc(SCC(=O)O)nc3[nH]cc(C#N)c23)cc1OCCN1CCC(F)(F)C1` [Example 50, (4-{2-Chloro-5-[2-(3,3-difluoro-pyrrolidin-1-yl)-ethoxy]-4-methoxy-phenyl}-5-cyano-7H-pyrrolo[2,3-d]pyrimidin-2-ylsulfanyl)-acetic Acid], with under 500 nM.

Source of the values: patent US20090163490A1, “Pyrrolopyrimidine Derivatives Used As HSP90 Inhibitors” (VERNALIS (R&D) LTD., priority 2006, published 2009).
